Blank lines part the entries; values can stand above or below the compound they belong to.
Assays:
[1] = target: misfolding-specific SOD1 antibody (Mis-SOD1 Ab); assay: dot blot assay, band intensity quantified with Image J; conditions: normalised to Con, read off a plot
[2] = target: pan-SOD1 antibody (Pan-SOD1 Ab); assay: as above; conditions: normalised to Con, read off a plot
[3] = BBB-PAMPA (parallel artificial membrane permeability assay); conditions: for recovery at 4 h, 10 µM: PAMPA
From the text: Next, we checked the basic in vitro ADME test including pharmacokinetics, plasma protein binding, CYP (Cytochrome P450) inhibition, metabolic stability and blood–brain barrier (BBB) permeability. […] We also plan to test safety panel assay in the future to obtain safety data for the drug.
Fig. S8. […]

[4] = system: WT-WT SOD1 interaction; parameters: method as in PMID 34912047; conditions: cited from earlier work
[5] = Pharmacokinetics in mice (compound screening, IV/PO); type: in vivo, mouse
Protocol: Fig. S1. Optimized inhibitor reduces SOD1 aggregation. a, Mutant SOD1s induced WT-SOD1 aggregation. Testing the selected chemicals to check the inhibitory effect on SOD1 aggregation .HEK293 cells were transfected with MT-SOD1 vectors (A4V, G 93 A) and treated with selected chemicals (5 mM). After incubation, transfected cells were harvested with TNNI buffer and fixed with 0.04% glutaraldehyde (Glu) for 30min. Samples were separated using SDS-PAGE. b-c, PRG-A-04 inhibited SOD1 inclusions in SK-N-SH cells. (b) Cells expressing MT-SOD1 vectors were treated with PRG-A-04 ([…]) for 24 hr. After incubation, cells were fixed with 4 % PFA and observed under the fluorescence microscope. (c) Cells with SOD1 inclusions (white arrows; strong intensity of SOD1) were counted by photomicrographs and the percentages were shown with standard deviation (SD). For cell counting, ten fluorescence images were randomly selected. Counting of cells were performed by three independent observers, who were blinded to transfection or chemical treatment group; two-tailed Student’s t-test. NS; Not significant, ****P < 0.001, d, PRG-A- […]
degradationin blood as well as gastro-intestinal tract.IV; intravenous injected group, PO; Per Os administrated group e, […]
show cytotoxicity. To know the toxic effect of PRG-A-04 , human normal fibroblast (f) and neuron cells (g) were incubated with PRG -A-04 for 48 hr dose dependently and measured the viability through MTT assay .“Con” means Dimethyl sulfoxide (DMSO) -treated control . The data are normalized to DMSO-treated cells. n=3 independent experiments; two-tailed Student’s t-test.NS; Not significant, *P < 0.05, **P < 0.01, ***P < 0.005.

[6] = system: SOD1^G93A−Tg mice; parameters: method as in PMID 34912047; conditions: cited from earlier work
[7] = system: ALS; conditions: cited from earlier work
[8] = system: MT-SOD1 protein uptake; assay: SOD1 recombinant protein uptake into neuronal cells; type: cell-based; conditions: SH-SY5Y cells, Dynasore 50 mM (so in the source), 6 hr
Protocol: For monitoring the localization of SOD1 recombinant proteins, SOD1-Halo proteins were added in neuronal cultures for 2 h and then the cells were incubated with the cell-permeable HaloTag-fluorscent ligands (diAcFAM) for 30 min. After incubation, cells were washed with serum-free culture medium three times and incubated in serum-containing culture medium in a CO2 incubator for 30 min to wash out unbound ligand. Fluorescent images of live cells were obtained using a commercial Tomocube HT-2H holotomography system (Daejeon, Republic of Korea).
We hypothesized that PRG-A-04, which targets trimeric SOD1, would inhibit SOD1 protein uptake. MT-SOD1 proteins were incubated with PRG-A-04 in vitro, and then cells were treated with the mixture. The MT-SOD1 protein uptake was reduced by incubation with PRG-A-04, as was SOD1 oligomerization (Fig. 3f, g). […] However, whether neuron-specific receptors on synapses, physiological conditions (neuronal cellular stress such as ion deficiency, environmental conditions such as hypoxia) and other ALS-related genetic causes (TDP-43, FUS, etc.) are essential for SOD1 uptake requires further study.
Fig. S3 SOD1 protein uptake into the cells through endocytosis. a, The uptake of SOD1 proteins was achieved by endocytosis. SH-SY5Y cells were treated with SOD1 recombinant proteins and endocytosis inhibitor (Dynasore; […]) for 6hr. After incubations, cells were harvested with RIPA and separated by SDS-PAGE. S.E: short exposure, L.E: long exposure. b, The recombinant MT-SOD1 protein is located intracellular space in neuron cells. SOD1-Halo proteins (3 μg/ml) were treated in neuron cells for 2 hr and incubated with HaloTag-fluorscent ligands (cellpermeable ligands; diAcFAM) for 30 min. After incubation, cells were washed with fresh culture medium three times and.
Incubate cells in complete culture medium at CO2 incubator for 30 min to wash unbound ligand. The fluorescence images of live cells were obtained using a commercial holotomography (HT-2H). White arrows indicate the intensity of SOD1. BF; Bright field, Scale bar; […].

[9] = Con (no PRG-A-04), Mis-SOD1 signal over Pan-SOD1 signal
[10] = PRG-A-04 treated, Mis-SOD1 signal over Pan-SOD1 signal

Sequence of WT-SOD1 (wild-type SOD1) expressed in transfected cells (from UniProt P00441) G93A (P00441 whole entry, looked up, stated change not applied): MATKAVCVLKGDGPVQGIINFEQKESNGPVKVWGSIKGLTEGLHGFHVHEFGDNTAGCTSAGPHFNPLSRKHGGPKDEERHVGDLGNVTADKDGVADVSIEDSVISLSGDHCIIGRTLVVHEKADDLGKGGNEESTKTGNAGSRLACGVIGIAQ
Sequence of WT-SOD1 (wild-type SOD1) expressed in transfected cells (from UniProt P00441) G85R (P00441 whole entry, looked up, stated change not applied): as above

- response [1, 9]: 1 A.U.
- response ([1]; Con (no PRG-A-04)): 1 A.U.
- response [1, 10]: 0.25 A.U.
- response ([1]; PRG-A-04 treated): 0.2 A.U.
- response ([2]; Con (no PRG-A-04)): 1 A.U.
- response ([2]; PRG-A-04 treated): 0.77 A.U.
Compound: WT-SOD1 (wild-type SOD1) expressed in transfected cells (from UniProt P00441) G93A

- recovery at 4 h, 10 µM [3]: < 109%
Compound: CC(C)NCC(O)COc1ccc(CC(N)=O)cc1 (stereo not shown) [Atenolol]

- bioavailability ([5]; in vivo): poorly bioavailable
- degradation in blood as well as gastro-intestinal tract ([5]; pharmacokinetics analysis, IV and PO groups (Fig. S1d)): rapid
Compound: COc1cc(C=CC(=O)OC2Cc3cc4ccc(=O)oc4cc3OC2(C)C)ccc1O (stereo not shown) [PRG-A-01]
- effect on WT-WT SOD1 interaction [4]: did not show inhibitory effects
- extension of lifespan of SOD1G93A-Tg mice [6]: about 10 days

- Mean Pe ([3]; BBB-PAMPA, test concentration 10 µM, incubation 4 hour): 76.6 nm/s
- Permeability ([3]; BBB-PAMPA, test concentration 10 µM, incubation 4 hour, class in words): High
- recovery at 4 h, 10 µM [3]: 82.4%
Compound: CC(C)NCC(O)COc1cccc2ccccc12 (stereo not shown) [Propranolol]

Compound: Tofersen
- effect on functional decline in clinical trials ([7]; SOD1-ALS patients): failed to improve functional decline

Compound: O=C(N/N=C/c1ccc(O)c(O)c1)c1cc2ccccc2cc1O [Dynasore, reference compound]
- effect on SOD1 protein uptake [8]: inhibited

Compound: CC1=NN(c2ccccc2)C(=O)C1 [radicava]
- efficacy on ALS progression [7]: efficacy in delaying ALS progression
- efficacy on survival rate [7]: no efficacy on survival rate

Compound: Nc1nc2ccc(OC(F)(F)F)cc2s1 [riluzole]
- efficacy on ALS progression [7]: efficacy in delaying ALS progression

- response [1, 9]: 1 A.U.
- response ([1]; Con (no PRG-A-04)): 1 A.U.
- response [1, 10]: 0.42 A.U.
- response ([1]; PRG-A-04 treated): 0.53 A.U.
- response ([2]; Con (no PRG-A-04)): 1 A.U.
- response ([2]; PRG-A-04 treated): 1.3 A.U.
Compound: WT-SOD1 (wild-type SOD1) expressed in transfected cells (from UniProt P00441) G85R
